Among the data in publication PMC5884652, “New antimicrobial peptide kills drug-resistant pathogens without detectable resistance” (Oncotarget, 2018) are MIC values, retold here.

Common to all, as to test: microbe, parasite or virus in culture
The subject of one test is E. coli CCARM1238. The class given is cell-based, Escherichia coli. To be noted: Escherichia coli, CCARM1238; pH (I or II) not given; 10 mM sodium phosphate buffer, 10% LB; 37° C, 24 h; mean of 3 experiments. An excerpt: (§1) The method for peptide synthesis has been described in detail previously. E. coli ATCC 25922 (LB media), P. aeruginosa ATCC 15692 (NB+0.5% NaCl media), Listeria monocytogenes ATCC 3710 (LB media), Staphylococcus epidermidis ATCC 12228 (LB media), and S. aureus ATCC 29213 (TSB media) were obtained from the American Type Culture Collection (Manassas, VA, USA). Bacillus subtilis KCTC 1998 (LB media), Salmonella typhimurium KCTC 1926 (NB media), and Proteus vulgaris KCTC 2433 (NB media) were obtained from the Korean Collection for Type Cultures (Jeollabuk-do, Korea). E. coli CCARM 1238 was received from the Culture Collection of Antibiotic Resistant Microbes at Seoul Women’s University, Korea. Drug-resistant P. aeruginosa 3543, 3904, 3547, and 4007 and S. aureus 3126, 0027, 5157, 1635, 4761, 5159, 3359, 2122, 1630, 1870, 3511, 5156, and 3518 were resistant strains isolated from patients with otitis media in a Chonnam National University’s hospital.
(§2) The antibacterial activities of AMPs (melittin, clavaspirin, and its analogs) and conventional antibiotic drugs (erythromycin, gentamicin, ampicillin, and piperacidin) were determined using microdilution assays. Bacterial cells were cultured at 37° C in appropriate culture media at pH 5.5 or pH 7.4 until collection during the mid-log phase and suspended in 10 mM sodium phosphate buffer (pH 5.5 or pH 7.4) supplemented with 10% culture medium. Thereafter, 2× serial dilutions of each peptide (0.25–128 μM) or antibiotic (0.25–256 μM) were added to sterile 96-well plates, and aliquots of cell suspension (5 × 10^5 colony forming units (cfu)/mL) were seeded into each well. The samples were then incubated at 37° C for 24 h. At the end of the incubation, the minimum inhibitory concentrations (MICs) of the peptides were determined using a VERSA Max microplate reader (Molecular Devices Co., Sunnyvale, CA, USA) at a wavelength of 600 nm. […] MIC values were calculated as the mean of 3 independent experiments conducted in triplicate.

A further test deals with P. aeruginosa 3543. The class given is cell-based, Pseudomonas aeruginosa. To be noted: Pseudomonas aeruginosa, 3543; pH (I or II) not given; 10 mM sodium phosphate buffer, 10% LB; 37° C, 24 h; mean of 3 experiments.
From the text: as §1, §2

In a further test the test system is P. aeruginosa 3547. Format: cell-based, Pseudomonas aeruginosa. To be noted: Pseudomonas aeruginosa, 3547; pH (I or II) not given; 10 mM sodium phosphate buffer, 10% LB; 37° C, 24 h; mean of 3 experiments.
From the text: as §1, §2

Another test deals with P. aeruginosa 3904. Format: cell-based, Pseudomonas aeruginosa. As to conditions: Pseudomonas aeruginosa, 3904; pH (I or II) not given; 10 mM sodium phosphate buffer, 10% LB; 37° C, 24 h; mean of 3 experiments.
From the text: as §1, §2

A further test deals with P. aeruginosa 4007. The class given is cell-based, Pseudomonas aeruginosa. As to conditions: Pseudomonas aeruginosa, 4007; pH (I or II) not given; 10 mM sodium phosphate buffer, 10% LB; 37° C, 24 h; mean of 3 experiments.
From the text: as §1, §2

In a further test the test system is S. aureus 0027. The class given is cell-based, Staphylococcus aureus. To be noted: Staphylococcus aureus, 0027; pH (I or II) not given; 10 mM sodium phosphate buffer, 10% LB; 37° C, 24 h; mean of 3 experiments.
From the text: as §1, §2

The test system of a further test is S. aureus 1630. The class given is cell-based, Staphylococcus aureus. To be noted: Staphylococcus aureus, 1630; pH (I or II) not given; 10 mM sodium phosphate buffer, 10% LB; 37° C, 24 h; mean of 3 experiments.
From the text: as §1, §2

The next test relates to S. aureus 1635. Format: cell-based, Staphylococcus aureus. To be noted: Staphylococcus aureus, 1635; pH (I or II) not given; 10 mM sodium phosphate buffer, 10% LB; 37° C, 24 h; mean of 3 experiments.
From the text: as §1, §2

In the next test the test system is S. aureus 1870. Format: cell-based, Staphylococcus aureus. As to conditions: Staphylococcus aureus, 1870; pH (I or II) not given; 10 mM sodium phosphate buffer, 10% LB; 37° C, 24 h; mean of 3 experiments.
From the text: as §1, §2

The test system of another test is S. aureus 2122. The class given is cell-based, Staphylococcus aureus. As to conditions: Staphylococcus aureus, 2122; pH (I or II) not given; 10 mM sodium phosphate buffer, 10% LB; 37° C, 24 h; mean of 3 experiments.
From the text: as §1, §2

The test system of another test is S. aureus 3126. Format: cell-based, Staphylococcus aureus. As to conditions: Staphylococcus aureus, 3126; pH (I or II) not given; 10 mM sodium phosphate buffer, 10% LB; 37° C, 24 h; mean of 3 experiments.
From the text: as §1, §2

The test system of a further test is S. aureus 3359. Format: cell-based, Staphylococcus aureus. To be noted: Staphylococcus aureus, 3359; pH (I or II) not given; 10 mM sodium phosphate buffer, 10% LB; 37° C, 24 h; mean of 3 experiments.
From the text: as §1, §2

The test system of another test is S. aureus 3511. Format: cell-based, Staphylococcus aureus. As to conditions: Staphylococcus aureus, 3511; pH (I or II) not given; 10 mM sodium phosphate buffer, 10% LB; 37° C, 24 h; mean of 3 experiments.
From the text: as §1, §2

In another test the test system is S. aureus 3518. The class given is cell-based, Staphylococcus aureus. To be noted: Staphylococcus aureus, 3518; pH (I or II) not given; 10 mM sodium phosphate buffer, 10% LB; 37° C, 24 h; mean of 3 experiments.
From the text: as §1, §2

In a further test the test system is S. aureus 4761. The class given is cell-based, Staphylococcus aureus. As to conditions: Staphylococcus aureus, 4761; pH (I or II) not given; 10 mM sodium phosphate buffer, 10% LB; 37° C, 24 h; mean of 3 experiments.
From the text: as §1, §2

The test system of the next test is S. aureus 5156. Format: cell-based, Staphylococcus aureus. As to conditions: Staphylococcus aureus, 5156; pH (I or II) not given; 10 mM sodium phosphate buffer, 10% LB; 37° C, 24 h; mean of 3 experiments.
From the text: as §1, §2

For the next test, the system named is S. aureus 5157. The class given is cell-based, Staphylococcus aureus. To be noted: Staphylococcus aureus, 5157; pH (I or II) not given; 10 mM sodium phosphate buffer, 10% LB; 37° C, 24 h; mean of 3 experiments.
From the text: as §1, §2

The next test relates to S. aureus 5159. Format: cell-based, Staphylococcus aureus. As to conditions: Staphylococcus aureus, 5159; pH (I or II) not given; 10 mM sodium phosphate buffer, 10% LB; 37° C, 24 h; mean of 3 experiments.
From the text: as §1, §2

Each structure is given as a SMILES string. Values after ≈ are worked out from the molar mass of the structure shown.

Regarding `CC1(C)S[C@@H]2[C@H](NC(=O)[C@H](N)c3ccccc3)C(=O)N2[C@H]1C(=O)O` [ampicillin], the MIC in the test on E. coli CCARM1238 was greater than 800 µM; in the test with P. aeruginosa 3543, greater than 800 µM; in the test on P. aeruginosa 3547, 400 µM (≈ 140 µg/mL); against P. aeruginosa 3904, greater than 800 µM; against P. aeruginosa 4007, greater than 800 µM.

For the compound `CC[C@H]1OC(=O)[C@H](C)[C@@H](O[C@H]2C[C@@](C)(OC)[C@@H](O)[C@H](C)O2)[C@H](C)[C@@H](O[C@@H]2O[C@H](C)C[C@H](N(C)C)[C@H]2O)[C@](C)(O)C[C@@H](C)C(=O)[C@H](C)[C@@H](O)[C@]1(C)O` [erythromycin], the MIC was greater than 256 µM against S. aureus 0027; greater than 256 µM in the test with S. aureus 1630; greater than 256 µM in the test with S. aureus 1635; greater than 256 µM with S. aureus 1870; greater than 256 µM against S. aureus 2122; 128 µM (≈ 93.9 µg/mL) against S. aureus 3126. Moreover, the MIC was greater than 256 µM in the test on S. aureus 3359; greater than 256 µM in the test with S. aureus 3511; greater than 256 µM against S. aureus 3518; greater than 256 µM in the test on S. aureus 4761; greater than 256 µM with S. aureus 5156; 16 µM (≈ 11.7 µg/mL) in the test on S. aureus 5157. Besides, the MIC with S. aureus 5159 was determined as 16 µM (≈ 11.7 µg/mL).

Consider `CNC(C)C1CCC(N)C(OC2C(N)CC(N)C(OC3OCC(C)(O)C(NC)C3O)C2O)O1` (stereo not shown) [gentamicin], for which the MIC is 64 µM (≈ 30.6 µg/mL) in the test with S. aureus 0027; 64 µM (≈ 30.6 µg/mL) with S. aureus 1630; greater than 256 µM in the test on S. aureus 1635; 16 µM (≈ 7.64 µg/mL) in the test on S. aureus 1870; 128 µM (≈ 61.1 µg/mL) against S. aureus 2122; 32 µM (≈ 15.3 µg/mL) against S. aureus 3126. The MIC against S. aureus 3359 was 64 µM (≈ 30.6 µg/mL); in the test with S. aureus 3511, greater than 256 µM; in the test with S. aureus 3518, greater than 256 µM; against S. aureus 4761, 32 µM (≈ 15.3 µg/mL); with S. aureus 5156, greater than 256 µM; in the test with S. aureus 5157 it was 16 µM (≈ 7.64 µg/mL). The compound also displayed an MIC against S. aureus 5159 of 16 µM (≈ 7.64 µg/mL).
